The term inhibition denotes how much of the control response was suppressed. Read a low inhibition as little suppression.

We go through 5 compounds from US4720503A, “N-substituted fused-heterocyclic carboxamide derivatives as dual cyclooxygenase and lipoxygenase inhibitors” (Merck & Co., Inc., priority 1985, dated 1988).

One data set addresses cyclooxygenase (Homo sapiens, UniProt P23219). As to the kind of experiment: cyclooxygenase enzyme assay, % inhibition (CO). Format: biochemical. To be noted: for inhibition at 0.5 µg/mL: Dosage 0.5 μg/ml; for inhibition at 1 µg/mL: Dosage 1.0 μg/ml; for inhibition at 5 µg/mL: Dosage 5.0 μg/ml; for inhibition at 0.1 µg/mL: Dosage 0.1 μg/ml.
The target of the next data set is T1, 5-lipoxygenase (Homo sapiens, UniProt P09917).
T1 sequence (P09917 1-674): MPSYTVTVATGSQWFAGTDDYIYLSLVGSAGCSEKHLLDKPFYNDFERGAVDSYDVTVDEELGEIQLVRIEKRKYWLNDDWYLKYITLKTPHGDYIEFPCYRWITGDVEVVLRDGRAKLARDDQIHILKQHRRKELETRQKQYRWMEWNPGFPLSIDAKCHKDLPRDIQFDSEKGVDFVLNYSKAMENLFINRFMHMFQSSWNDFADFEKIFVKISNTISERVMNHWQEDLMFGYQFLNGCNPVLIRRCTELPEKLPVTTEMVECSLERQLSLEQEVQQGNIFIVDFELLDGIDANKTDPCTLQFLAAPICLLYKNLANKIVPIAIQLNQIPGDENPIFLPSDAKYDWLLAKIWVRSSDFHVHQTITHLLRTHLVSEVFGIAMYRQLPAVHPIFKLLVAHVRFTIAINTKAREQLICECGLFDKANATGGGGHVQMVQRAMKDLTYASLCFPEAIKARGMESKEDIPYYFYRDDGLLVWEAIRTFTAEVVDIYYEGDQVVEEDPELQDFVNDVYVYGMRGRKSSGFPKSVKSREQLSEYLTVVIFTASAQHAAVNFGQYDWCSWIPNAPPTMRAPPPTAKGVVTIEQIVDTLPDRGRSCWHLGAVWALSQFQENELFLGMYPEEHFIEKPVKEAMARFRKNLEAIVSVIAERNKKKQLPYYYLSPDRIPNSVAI
As to the kind of experiment: 5-lipoxygenase enzyme assay, % inhibition (5-LO). Format: biochemical. To be noted: for inhibition at 1 µg/mL: Dosage 1.0 μg/ml.

The subject of the next data set is gastric acid secretion. To be noted: S. Szabo et al., Experimentia, 38, 254, 1982; cited from earlier work.
Another data set relates to gastric cytoprotection. The settings on record: S. Szabo et al., Experimentia, 38, 254, 1982; cited from earlier work.
The nature of data set [1]: solubility remark (footnote of table 9). Format: physicochemical. To be noted: footnote to 5-LO value at 100 μg/ml.

Sequence of cyclooxygenase (P23219 24-599): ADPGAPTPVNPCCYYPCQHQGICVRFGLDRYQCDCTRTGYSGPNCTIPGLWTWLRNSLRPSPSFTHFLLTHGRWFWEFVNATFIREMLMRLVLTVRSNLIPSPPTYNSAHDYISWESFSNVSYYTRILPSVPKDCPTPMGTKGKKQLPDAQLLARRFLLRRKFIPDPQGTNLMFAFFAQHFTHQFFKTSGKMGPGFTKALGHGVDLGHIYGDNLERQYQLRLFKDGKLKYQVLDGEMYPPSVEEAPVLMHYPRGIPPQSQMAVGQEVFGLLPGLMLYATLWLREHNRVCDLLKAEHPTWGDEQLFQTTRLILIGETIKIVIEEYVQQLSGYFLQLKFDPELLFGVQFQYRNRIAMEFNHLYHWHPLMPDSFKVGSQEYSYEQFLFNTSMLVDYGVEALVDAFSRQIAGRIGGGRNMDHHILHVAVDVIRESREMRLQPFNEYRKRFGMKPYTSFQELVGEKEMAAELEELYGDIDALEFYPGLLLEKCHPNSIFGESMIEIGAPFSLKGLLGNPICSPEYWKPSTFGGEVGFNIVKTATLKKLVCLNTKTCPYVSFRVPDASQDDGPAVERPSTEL

At cyclooxygenase, `COC(=O)c1cc2oc(C(=O)NC=C(c3ccccc3)c3ccccc3)c(O)c2s1` [O phenyl phenyl CO2 CH3, N-(2,2-Diphenylethenyl)-5-carbomethoxy-3-hydroxythieno[3,2-b]furan-2-carboxamide] had an inhibition at 0.5 µg/mL of 95%, an inhibition at 1 µg/mL of 98% and an inhibition at 5 µg/mL of 100%. At 2 µg/mL the inhibition at cyclooxygenase (Dosage 2.0 μg/ml) was 98%. The compound further registered an inhibition at 0.5 µg/mL on 5-lipoxygenase (Dosage 0.5 μg/ml) of 30%. The same compound gave an inhibition at 5 µg/mL at 5-lipoxygenase (Dosage 5.0 μg/ml) of 34%.
On to `Cc1ccc(C(=CNC(=O)c2sc3ccsc3c2O)c2ccco2)cc1` [S p-tolyl 2-furyl H, N-[2-(2-Furyl)-2-(4-methylphenyl)ethenyl]-3-hydroxythieno[3,2-b]thiophene-2-carboxamide], for which the inhibition at 0.1 µg/mL against cyclooxygenase came out at 49%; on 5-lipoxygenase (Dosage 0.1 μg/ml), 11%. Further, the inhibition at 1 µg/mL against cyclooxygenase worked out at 97%; at 5-lipoxygenase, 14%. This compound also came in with an inhibition at 5 µg/mL against cyclooxygenase of 98%. Moreover, the inhibition at 10 µg/mL is 100% at cyclooxygenase (Dosage 10.0 μg/ml) and 66% against 5-lipoxygenase (Dosage 10.0 μg/ml).
Take `CCCCC[C@H](O)/C=C/[C@@H]1[C@@H](C/C=C\CCCC(=O)O)[C@H](O)C[C@H]1O` [protaglandin F2B]: in the data set on gastric acid secretion, the “inhibition of gastric acid secretion” value is reported as “does not inhibit gastric acid secretion”. Further, the gastric cytoprotection entry with gastric cytoprotection is reported as “does induce gastric cytoprotection”.
At cyclooxygenase, `O=C(NC=C(c1ccccc1)c1ccccc1)c1sc2ccsc2c1O` [S phenyl phenyl H, N-(2,2-diphenylethenyl)-3-hydroxythieno[3,2-b]thiophene-2-carboxamide] registered an inhibition at 0.1 µg/mL of 39% and an inhibition at 1 µg/mL of 100%. 0.48 µg/mL produced 99% inhibition against cyclooxygenase (Dosage 0.48 μg/ml). On cyclooxygenase (Dosage 2.40 μg/ml), this compound yielded an inhibition at 2.4 µg/mL of 100%. This compound also yielded an inhibition at 1 µg/mL at 5-lipoxygenase of 34%.
Consider `COC(=O)c1cc2sc(C(=O)NC=C(c3ccccc3)c3ccccc3)c(O)c2s1` [S phenyl phenyl CO2 CH3, 5-Carbomethoxy-N-(2,2-diphenylethenyl)-3-hydroxythieno[3,2-b]thiophene-2-carboxamide], for which, at cyclooxygenase (Dosage 0.01 μg/ml), testing at 0.01 µg/mL gave an inhibition of 9%. At cyclooxygenase (Dosage 0.05 μg/ml), this compound showed an inhibition at 0.05 µg/mL of 33%. The same compound registered an inhibition at 0.5 µg/mL on cyclooxygenase of 80%. Moreover, the inhibition at 5 µg/mL at cyclooxygenase came to 100%. Moreover, the figures for the inhibition at 100 µg/mL against cyclooxygenase (Dosage 100 μg/ml) and against 5-lipoxygenase were 100% and 12%, respectively. The “solubility (footnote)” value in data set [1] was “very insoluble”.
